Measured values from PubChem BioAssay (NCI).
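Grown in 96-well plates, cells were treated for 48 hours with each compound at five concentrations. Insufficient inhibition: endpoint recorded as highest concentration tested. At the GI50, growth is halved. TGI: concentration producing complete growth inhibition.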

Legend:
Test in all cases: NCI tumour cell line growth inhibition, 48 h
ACHN renal = test system: ACHN renal
SK-MEL-5 melanoma = test system: SK-MEL-5 melanoma
HOP-92 NSCLC = test system: HOP-92 NSCLC
HCT-116 colon = test system: HCT-116 colon
HS 578T breast = test system: HS 578T breast
LOX IMVI melanoma = test system: LOX IMVI melanoma
NCI-H23 lung = test system: NCI-H23 lung
EKVX NSCLC = test system: EKVX NSCLC
OVCAR-3 ovarian = test system: OVCAR-3 ovarian
HCC-2998 colon = test system: HCC-2998 colon

| SMILES | GI50 (ACHN renal) | TGI (ACHN renal) | GI50 (SK-MEL-5 melanoma) | TGI (SK-MEL-5 melanoma) | GI50 (HOP-92 NSCLC) | TGI (HOP-92 NSCLC) | GI50 (HCT-116 colon) | TGI (HCT-116 colon) | GI50 (HS 578T breast) | TGI (HS 578T breast) | GI50 (LOX IMVI melanoma) | TGI (LOX IMVI melanoma) | GI50 (NCI-H23 lung) | TGI (NCI-H23 lung) | GI50 (EKVX NSCLC) | TGI (EKVX NSCLC) | GI50 (OVCAR-3 ovarian) | TGI (OVCAR-3 ovarian) | GI50 (HCC-2998 colon) | TGI (HCC-2998 colon) |
| --- | --- | --- | --- | --- | --- | --- | --- | --- | --- | --- | --- | --- | --- | --- | --- | --- | --- | --- | --- | --- |
| Cc1cccnc1CNC1CC(NCc2ncccc2C)CC(NCc2ncccc2C)C1 (stereo not given) | 3.22 µM | 11.2 µM | 1.92 µM | 3.83 µM | 1.1 µM | 2.3 µM | 1.63 µM | 3.24 µM | 3.39 µM | 16.2 µM | 1.92 µM | 3.96 µM | 2.8 µM | 6.82 µM | 2.56 µM | 8.14 µM | 3.1 µM | 8.94 µM |  |  |
| C=C=[CH][Sn]([c]1ccccc1)([c]1ccccc1)[c]1ccccc1 | 1.66 µM | 3.16 µM | 1.56 µM | 3.09 µM | 0.593 µM | 2.03 µM | 0.866 µM | 2.27 µM | 2.06 µM | 7.37 µM | 1.43 µM | 2.87 µM | 1.58 µM | 3.47 µM | 1.7 µM | 4.78 µM | 1.54 µM | 4.61 µM | 1.76 µM | 3.36 µM |
| COc1ccc(-c2cncn2-c2cc(OC)c(OC)c(OC)c2)cc1F |  |  | < 0.01 µM | 13.1 µM | 6 µM | 51.9 µM | < 0.0158 µM | 15.8 µM | 0.332 µM | > 100 µM | < 0.01 µM | 64.9 µM | 0.149 µM | > 100 µM | 0.153 µM | > 100 µM | 0.0219 µM | 22.2 µM | 0.0101 µM | 13.4 µM |
| CCNCCNc1cc(-c2cccc(C(F)(F)F)c2)c(C#N)c2nc3ccccc3n12 | 1.32 µM | 2.9 µM | 1.76 µM | 3.16 µM | 1.69 µM | 3.54 µM | 0.239 µM | 0.515 µM | 1.84 µM | 3.88 µM | 0.299 µM | 1.07 µM | 1.75 µM | 3.53 µM | 1.75 µM | 3.45 µM | 1.26 µM | 2.62 µM | 1.65 µM | 3.13 µM |
| N#CC[C@H](C1CCCC1)n1cc(-c2ncnc3[nH]ccc23)cn1 | 23.3 µM | > 100 µM | 17.2 µM | 49 µM | 6.81 µM | > 100 µM | 20.2 µM | > 100 µM | 5.19 µM | 69.9 µM | 20.9 µM | > 100 µM | 19.6 µM | 75.7 µM | 14.9 µM | > 83.7 µM | 24.2 µM | > 67.3 µM | 20.6 µM | > 91.7 µM |
| CS(=O)(=O)c1nc(Cl)c(Cl)c(C#N)c1Cl |  | 5.26 µM |  | 15.5 µM |  | 3.73 µM |  | 4.47 µM |  | > 58.7 µM |  | 4.3 µM |  | 9 µM |  | 27.4 µM |  | 4.73 µM |  | 29.8 µM |
| C[C@@H]1CN2[C@H]3[C@@H]1CC[C@]31CCC(=O)O[C@]1(C)[C@@H]1CC[C@H]3CCC=C3[C@@H]12 | > 70 µM | > 70 µM | > 70 µM | > 70 µM | 38.4 µM | > 70 µM | > 70 µM | > 70 µM | > 70 µM | > 70 µM | > 70 µM | > 70 µM | > 70 µM | > 70 µM | > 70 µM | > 70 µM | > 70 µM | > 70 µM | > 70 µM | > 70 µM |
| Nc1cccc2nsnc12 |  | > 100 µM |  | > 100 µM |  | > 100 µM |  | > 100 µM |  | > 100 µM |  | > 100 µM |  | > 100 µM |  | > 100 µM |  | > 100 µM |  | > 100 µM |
| NC(=O)NC(=O)C1CCCCC1C(=O)O (stereo not given) |  | > 100 µM |  | > 100 µM |  | > 100 µM |  | > 100 µM |  | > 100 µM |  | > 100 µM |  | > 100 µM |  | > 100 µM |  | > 100 µM |  |  |
| C=C(C)[C@@H]1CC[C@]2(C)[C@H](C=CC3=C4C[C@@](C)(CO)CC[C@]4(C)CC[C@]32C)[C@@]1(C)CCCN | 1.76 µM | 3.14 µM |  |  | 1.48 µM | 3.21 µM | 1.69 µM | 3.21 µM | 1.8 µM | 4.07 µM | 1.37 µM | 2.7 µM | 1.77 µM | 3.32 µM | 1.6 µM | 3.1 µM | 1.48 µM | 2.85 µM | 0.793 µM | 2.14 µM |
| COc1cnc2c(c1)C(=O)c1c-2n(CCCN2CCN(CCO)CC2)c(=O)c2cc([N+](=O)[O-])ccc12 | 0.738 µM | 15.9 µM | 1.44 µM | 2.78 µM | 13.3 µM | 31 µM |  |  | 14.7 µM | 42.1 µM | 1.08 µM | 2.51 µM | 1.27 µM | 3.33 µM | 1.8 µM | 4.23 µM | 1.46 µM | 3.12 µM | 11.7 µM | 24.9 µM |
| Brc1ccc(Br)nn1 | 1.8 µM | 3.26 µM | 1.49 µM | 3.85 µM | 1.8 µM | 3.6 µM | 1.48 µM | 2.84 µM | 1.75 µM | 28.1 µM | 1.41 µM | 2.88 µM | 1.38 µM | 4.23 µM | 8.17 µM | 24.7 µM |  |  | 1.98 µM | 4.94 µM |
| Oc1[nH]c2ccc(Cl)cc2c1/C=c1/ccc2c(c1)N=C(c1cc(F)cc(F)c1)N=2 | 7.42 µM | > 100 µM | 4.07 µM | > 100 µM | 2.41 µM | 31.1 µM |  |  | 2.9 µM | > 100 µM | 3.52 µM | > 100 µM | 5.01 µM | > 100 µM | 27.7 µM | > 100 µM | 2.26 µM | 5.73 µM | 7.55 µM | > 100 µM |
| COc1cccc(Nc2nccc(Nc3ccc4[nH]ncc4c3)n2)c1 |  |  | 1.22 µM | 2.47 µM | 1.45 µM | 4.14 µM | 1.59 µM | 3.23 µM | 1.79 µM | 4.61 µM | 1.44 µM | 3.19 µM | 1.69 µM | 3.83 µM | 1.64 µM | 4.09 µM | 1.58 µM | 4.07 µM | 1.79 µM | 3.36 µM |
